Results: patent publication US5736384A (priority 1994, dated 1998)
“Also recorded” adds a separate entry of the source. Where two headings read alike, the source gives them in different places.

Columns and labels:
XP1 [1] = test: Effects of metal salts on enzyme activity of XP1; type: biochemical, Bacillus sp. 2113; details: metal salt 1 mM, 4° C. overnight, also 1 mM in reaction mixture; None = 100
Protocol: (§1) Various metal salts were added to each of the enzyme solutions to a concentration of 1 mM and retained at 4° C. overnight. Then, a metal salt of the same kind was also added to a reaction mixture to a concentration of 1 mM, and the enzyme activities of XP1 and XP2 were determined.

XP2 [2] = test: Effects of metal salts on enzyme activity of XP2; type: biochemical, Bacillus sp. 2113; details: for Relative Activity(%) XP2: metal salt 1 mM, 4° C. overnight, also 1 mM in reaction mixture, None = 100; for inhibition of XP2 by metal ion (in words): 1 mM
Protocol: as §1

XP1 [3] = molecular target: T1, XP1 (Paenibacillus sp. DG-22, UniProt A4GG22); test: biochemical; type: biochemical, Bacillus sp. 2113; details: for activity at 1000 µM: read-out: Relative Activity(%) XP1
Protocol: (§2) Various inhibitors and the like were added to each of the enzyme solutions to a concentration of 1 mM and retained at 4° C. overnight. Then, the same substance was also added to a reaction mixture to a concentration of 1 mM, and the enzyme activities of XP1 and XP2 were determined.

XP1 [4] = test: biochemical; type: biochemical, Bacillus sp. 2113; details: inhibitor 1 mM, 4° C. overnight, also 1 mM in reaction mixture, None = 100; for activity at 1000 µM: read-out: Relative Activity(%) XP1
Protocol: as §2

XP2 [5] = type: biochemical, Bacillus sp. 2113
Protocol: as §2

XP1 [6] = molecular target: T1, XP1; test: Effects of metal salts on enzyme activity of XP1; type: biochemical, Bacillus sp. 2113; details: 1 mM
Protocol: as §1

[7] = Action: thin-layer chromatography of reaction products from birch xylan; type: biochemical; details: 1% birch xylan, pH 7.0, 60° C., 10 U enzyme, TLC
Protocol: To 5 ml of 1% birch xylan (Sigma) solution (pH 7.0, in 40 mM sodium phosphate buffer), 10 U of each of XP1 and XP2 was added and reacted at 60° C. After a certain reaction period, the reaction was terminated by boiling and 10 μl of the reaction mixture was subjected to thin-layer chromatography using HPTLC Kieselgel 60 F254 (Merk) as a thin layer and a mixture of n-butanol, acetic acid and water (10:5:1) as a developer. The coloring was carried out by spraying a diphenylamine-aniline reagent and heating at 120° C. for 10 minutes.
The number of minutes shown in this FIG. represents the reaction time of the enzyme.

Substrate specificity = type: biochemical
[8] = Optimum pH for reaction (enzyme activity measured at each pH); type: biochemical
Protocol: (§3) For each of the enzymes, the optimum pH and pH stability were determined by using glycine-HCl buffer (pH 3 or below), acetate buffer (pH 4-5), sodium phosphate buffer (pH 6-7), Tris-HCl buffer (pH 8-9) and glycine-NaOH buffer (pH 9.1-10.1). The enzyme activity of each xylanase was measured at each of the pH values.
(§4) Fifty microliters of a sample solution is added to 200 μl of 1% birch xylan (Sigma) solution (pH 6.5, in 1/10 McIlvaine buffer), and reacted at 70° C. for 5 minutes. Five hundreds microliters of DNS reagent is added thereto and boiled for 5 minutes. Then, the reaction mixture is immediately ice-cooled and 4 ml distilled water is added thereto. Thereafter, absorbance at 500 nm is measured. Calibration curves are prepared by using a xylose solution of known concentration.
(§5) As to the unit of xylanase activity, one unit (U) was defined as the amount of enzyme which releases […] of reducing sugar per minute under the above conditions.

[9] = pH stability (enzyme activity after two nights in buffer); type: physicochemical; details: retained in 50 mM buffer for two nights
Protocol: as §3
In addition, each of the enzymes was retained in a certain 50 mM buffer for two nights and then the enzyme activity was determined.

[10] = Enzyme activity at different temperatures (optimum / appropriate temperature); type: biochemical
Protocol: as §4, §5
The enzyme activity of each enzyme was determined at different temperatures.

[11] = Thermostability (residual activity after 30 min at a certain temperature); type: physicochemical; details: 50 mM Tris-HCl buffer (pH 7.2)
Protocol: In addition, after each enzyme was left in 50 mM Tris-HCl buffer (pH 7.2) for 30 minutes at a certain temperature, the enzyme activity was determined.

[12] = Determination of xylanase activity (DNS reducing sugar method); type: biochemical; details: purified enzyme
Protocol: as §4, §5
Fifty microliters of the crude enzyme solution was added to 200 μl of 1% birch xylan (Sigma) solution (in 1/10 McIlvaine buffer, pH 6. 5), and reacted at 70° C. for 5 minutes.
After addition of DNS reagent (500 μl) and subsequent boiling for 5 minutes, the reaction mixture was immediately ice-cooled and 4 ml of distilled water was added thereto. Then, absorbance at 500 nm was measured. Calibration curves were prepared by using a xylose solution of known concentration.
As to the unit of xylanase activity, one unit (U) was defined as the amount of enzyme which releases 1 μmol of reducing sugar per minute under the above conditions. […]

[13] = inhibitor 1 mM, 4° C. overnight, also 1 mM in reaction mixture, None = 100

T1 sequence (A4GG22 29-211): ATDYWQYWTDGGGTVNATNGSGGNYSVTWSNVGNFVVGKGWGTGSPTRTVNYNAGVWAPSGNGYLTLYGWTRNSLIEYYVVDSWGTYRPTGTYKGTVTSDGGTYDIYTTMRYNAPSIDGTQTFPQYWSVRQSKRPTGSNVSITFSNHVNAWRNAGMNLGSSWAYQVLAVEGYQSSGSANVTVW
T1 sequence (A4GG22 29-211): as above

[Cl-].[Cl-].[Mg+2] [MgCl2]
Relative Activity(%) XP1 (XP1 [1]): 129% | Relative Activity(%) XP2 (XP2 [2]): 103%

[Cl][Cu][Cl] [CuCl2]
Relative Activity(%) XP1 (XP1 [1]): 87% | inhibition of XP2 by metal ion (in words) (XP2 [2]): weakly inhibited | Relative Activity(%) XP2 (XP2 [2]): 68%

[Cl][Mn][Cl] [MnCl2]
Relative Activity(%) XP1 (XP1 [1]): 99% | inhibition of XP2 by metal ion (in words) (XP2 [2]): weakly inhibited | Relative Activity(%) XP2 (XP2 [2]): 74%

CCCCCCCCCCCCOS(=O)(=O)O [SDS]
inhibition of XP1 by inhibitor (in words) (XP1 [3]; 1 mM): strongly inhibited | activity at 1000 µM (XP1 [4]): 0% | inhibition of XP2 by inhibitor (in words) (XP2 [5]; 1 mM): strongly inhibited | Relative Activity(%) XP2 (XP2 [5]; [13]): 0%

O=C(O)CN(CCN(CC(=O)O)CC(=O)O)CC(=O)O [EDTA]
inhibition of XP1 by inhibitor (in words) (XP1 [3]): weakly inhibited | activity at 1000 µM (XP1 [3]): 59% | Relative Activity(%) XP2 (XP2 [5]): 65% | inhibition of XP2 by inhibitor (in words) (XP2 [5]): weakly inhibited

[Cl-].[Rb+] [RbCl]
Relative Activity(%) XP1 (XP1 [1]): 121% | Relative Activity(%) XP2 (XP2 [2]): 98%

[Cl-].[Li+] [LiCl]
Relative Activity(%) XP1 (XP1 [1]): 128% | Relative Activity(%) XP2 (XP2 [2]): 99%

[Ba+2].[Cl-].[Cl-] [BaCl2]
Relative Activity(%) XP1 (XP1 [1]): 137% | Relative Activity(%) XP2 (XP2 [2]): 108%

O=S(=O)([O-])[O-].[Fe+2] [FeSO4]
Relative Activity(%) XP1 (XP1 [1]): 165% | Relative Activity(%) XP2 (XP2 [2]): 99%

[Cl-].[Cl-].[Co+2] [CoCl2]
Relative Activity(%) XP1 (XP1 [1]): 107% | inhibition of XP2 by metal ion (in words) (XP2 [2]): weakly inhibited | Relative Activity(%) XP2 (XP2 [2]): 70%

[Cl][Hg][Cl] [HgCl2]
inhibition of XP1 by metal ion (in words) (XP1 [6]): strongly inhibited | Relative Activity(%) XP1 (XP1 [1]): 24% | inhibition of XP2 by metal ion (in words) (XP2 [2]): strongly inhibited | Relative Activity(%) XP2 (XP2 [2]): 0%

[Cl][Ni][Cl] [NiCl2]
Relative Activity(%) XP1 (XP1 [1]): 129% | Relative Activity(%) XP2 (XP2 [2]): 93%

[Cl][Al]([Cl])[Cl] [AlCl3]
Relative Activity(%) XP1 (XP1 [1]): 110% | Relative Activity(%) XP2 (XP2 [2]): 100%

[Ca+2].[Cl-].[Cl-] [CaCl2]
Relative Activity(%) XP1 (XP1 [1]): 106% | Relative Activity(%) XP2 (XP2 [2]): 98%

XP1: thermostable xylanase from Bacillus sp. 2113 culture, active fraction eluted earlier; amino acid sequence SEQ ID NO: 1
products formed upon acting on xylan [7]: xyloligosaccharides | substrate specificity (Substrate specificity): act on prepared xylans such as birch xylan and oat spelt xylan, as well as xylan-containing materials such as hardwood kraft pulp and oat spelt bran; also recorded: acting on prepared xylans including birch xylan and oat spelt xylan, as well as xylan-containing materials including hardwood kraft pulp and oat spelt bran | optimum pH for reaction [8]: 5-8 | pH at which the xylanase is stable [9]: 3.0-9.0 | optimum temperature for reaction [10]: 70 °C | residual enzyme activity after 30 min treatment at 50° C. ([11]; 50° C.): ≥ 90% | residual enzyme activity after 30 min treatment at 60° C. ([11]; 60° C.): ≥ 50% | specific activity [12]: 1420 U/mg

[N-]=[N+]=[N-].[Na+] [NaN3]
Relative Activity(%) XP1 (XP1 [4]): 96% | Relative Activity(%) XP2 (XP2 [5]; [13]): 109%

O=C(O)CI [Iodoacetic acid]
inhibition of XP1 by inhibitor (in words) (XP1 [3]): weakly inhibited | activity at 1000 µM (XP1 [3]): 75% | Relative Activity(%) XP2 (XP2 [5]): 76% | inhibition of XP2 by inhibitor (in words) (XP2 [5]): weakly inhibited

O[C@H](CS)[C@H](O)CS (racemic) [Dithiothreitol]
activity at 1000 µM (XP1 [4]): 85% | Relative Activity(%) XP2 (XP2 [5]; [13]): 82%
